Reference: patent US12421252B2, “Spiro (isobenzofuranazetidine) compounds for the treatment of autoimmune disease” (Hoffmann-La Roche Inc., priority 2020, dated 2025)

These compounds were tested against T1, hTLR9 (Homo sapiens, UniProt Q9NR96) (assay: HEK293-Blue-hTLR-9 cells assay). Conditions: HEK293-Blue-hTLR9 cells, ODN2006 stimulation, 20 hrs, SEAP reporter; read-out: HEK/hTLR9 IC50.
T1 sequence (Q9NR96 26-1032): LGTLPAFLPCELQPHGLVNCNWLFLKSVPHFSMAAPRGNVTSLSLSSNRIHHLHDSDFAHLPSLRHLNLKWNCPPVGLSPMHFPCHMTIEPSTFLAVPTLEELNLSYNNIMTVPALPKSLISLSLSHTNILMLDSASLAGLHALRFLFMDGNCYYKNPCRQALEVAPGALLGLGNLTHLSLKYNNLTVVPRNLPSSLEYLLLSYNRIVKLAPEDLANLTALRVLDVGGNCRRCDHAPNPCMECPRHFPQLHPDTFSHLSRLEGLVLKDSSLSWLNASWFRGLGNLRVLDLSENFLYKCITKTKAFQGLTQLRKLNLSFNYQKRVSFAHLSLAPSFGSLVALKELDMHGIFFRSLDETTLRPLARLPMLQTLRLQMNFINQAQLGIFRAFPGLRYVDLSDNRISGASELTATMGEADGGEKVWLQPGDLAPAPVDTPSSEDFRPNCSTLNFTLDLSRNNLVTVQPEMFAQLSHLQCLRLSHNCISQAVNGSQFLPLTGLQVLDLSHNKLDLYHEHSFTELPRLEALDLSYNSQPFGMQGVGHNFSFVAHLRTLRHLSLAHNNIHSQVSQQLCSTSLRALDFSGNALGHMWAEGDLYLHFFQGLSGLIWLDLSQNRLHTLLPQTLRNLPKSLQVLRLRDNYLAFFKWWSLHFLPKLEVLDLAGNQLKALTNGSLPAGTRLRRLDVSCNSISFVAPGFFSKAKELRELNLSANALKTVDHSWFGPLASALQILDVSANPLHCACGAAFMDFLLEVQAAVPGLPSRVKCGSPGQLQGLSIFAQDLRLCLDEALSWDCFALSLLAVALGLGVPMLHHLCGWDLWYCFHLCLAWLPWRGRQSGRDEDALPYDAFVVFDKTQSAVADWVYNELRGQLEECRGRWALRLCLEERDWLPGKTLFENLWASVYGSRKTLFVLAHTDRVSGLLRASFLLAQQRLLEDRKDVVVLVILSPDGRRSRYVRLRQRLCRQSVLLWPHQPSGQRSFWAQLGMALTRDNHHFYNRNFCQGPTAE
Format: cell-based
Excerpt: HEK293-Blue-hTLR-9 cells assay: A stable HEK293-Blue-hTLR-9 cell line was purchased from InvivoGen (Cat. #: hkb-htlr9, San Diego, California, USA). These cells were originally designed for studying the stimulation of human TLR9 by monitoring the activation of NF-κB. A SEAP (secreted embryonic alkaline phosphatase) reporter gene was placed under the control of the IFN-β minimal promoter fused to five NF-κB and AP-1-binding sites. The SEAP was induced by activating NF-κB and AP-1 via stimulating HEK-Blue hTLR9 cells with TLR9 ligands. Therefore the reporter expression was declined by TLR9 antagonist under the stimulation of a ligand, such as ODN2006 (Cat. #: tlrl-2006-1, Invivogen, San Diego, California, USA), for incubation of 20 hrs. The cell culture supernatant SEAP reporter activity was determined using QUANTI-Blue™ kit (Cat. #: rep-qb1, Invivogen, San Diego, California, USA) at a wavelength of 640 nm, a detection medium that turns purple or blue in the presence of alkaline phosphatase.
HEK293-Blue-hTLR9 cells were incubated at a density of 250,000˜450,000 cells/mL in a volume of 170 μL in a 96-well plate in Dulbecco's Modified Eagle's medium (DMEM) containing 4.5 g/L glucose, 50 U/mL penicillin, […], 2 mM L-glutamine, 10% (v/v) heat-inactivated fetal bovine serum with addition of 20 μL test compound in a serial dilution in the presence of final DMSO at 1% and 10 μL of 20 uM ODN2006 in above DMEM, perform incubation under 37° C. in a CO2 incubator for 20 hrs. Then 20 μL of the supernatant from each well was incubated with 180 μL Quanti-blue substrate solution at 37° C. for 2 h and the absorbance was read at 620-655 nm using a spectrophotometer. The signaling pathway that TLR9 activation leads to downstream NF-κB activation has been widely accepted, and therefore similar reporter assay was modified for evaluating TLR9 antagonist.

C[C@@H]1CN(c2ccc(C#N)n3nccc23)C[C@H](CN2CC3(C2)OCc2cc(N4CC(C)(N)C4)cnc23)O1 [Example 26, 4-[(2S,6R)-2-[[3-(3-amino-3-methyl-azetidin-1-yl)spiro[5H-furo[3,4-b]pyridine-7,3′-azetidine]-1′-yl]methyl]-6-methyl-morpholin-4-yl]pyrazolo[1,5-a]pyridine-7-carbonitrile] and C[C@@H]1CN(c2ccc(C#N)n3nccc23)C[C@H](CN2CC3(C2)OCc2cc(N4CC(C)(N)C4)ncc23)O1 [Example 25, 4-[(2S,6R)-2-[[6-(3-amino-3-methyl-azetidin-1-yl)spiro[1H-furo[3,4-c]pyridine-3,3′-azetidine]-1′-yl]methyl]-6-methyl-morpholin-4-yl]pyrazolo[1,5-a]pyridine-7-carbonitrile] are within 1.5-fold of each other in IC50: 80 nM for the first, 70 nM for the second.

First: [2H]c1ccc2c(N3C[C@H](CN4CC5(C4)OCc4cc(N6CC(N)C6)ncc45)O[C@H](C)C3)ccc(C#N)c2n1 [Example 32, 5-[(2S,6R)-2-[[6-(3-aminoazetidin-1-yl)spiro[1H-furo[3,4-c]pyridine-3,3′-azetidine]-1′-yl]methyl]-6-methyl-morpholin-4-yl]-2-deuterio-quinoline-8-carbonitrile]
Second: [2H]c1ccc2c(N3C[C@H](CN4CC5(C4)OCc4cc(N6C[C@H]7NCCO[C@@H]7C6)ncc45)O[C@H](C)C3)ccc(C#N)c2n1 [Example 28, 5-[(2S,6R)-2-[[6-[(4aR,7aR)-3,4,4a,5,7,7a-hexahydro-2H-pyrrolo[3,4-b][1,4]oxazin-6-yl]spiro[1H-furo[3,4-c]pyridine-3,3′-azetidine]-1′-yl]methyl]-6-methyl-morpholin-4-yl]-2-deuterio-quinoline-8-carbonitrile]
The IC50 of the first is 1.5-fold higher: 244 nM for the first, 160 nM for the second. The second is the more potent here.

C[C@@H]1CN(c2ccc(C#N)n3ncc(F)c23)C[C@H](CN2CC3(C2)OCc2cc(N4CCNCC4)ccc23)O1 [Example 6, 3-fluoro-4-[(2R,6S)-2-methyl-6-[(6-piperazin-1-ylspiro[1H-isobenzofuran-3,3′-azetidine]-1′-yl)methyl]morpholin-4-yl]pyrazolo[1,5-a]pyridine-7-carbonitrile] and C[C@@H]1CN(c2ccc(C#N)n3ncc(F)c23)C[C@H](CN2CC3(C2)OCc2cc(N4CC5(CNC5)C4)ccc23)O1 [Example 12, 4-[(2S,6R)-2-[[6-(2,6-diazaspiro[3.3]heptan-2-yl)spiro[1H-isobenzofuran-3,3′-azetidine]-1′-yl]methyl]-6-methyl-morpholin-4-yl]-3-fluoro-pyrazolo[1,5-a]pyridine-7-carbonitrile] are within 1.5-fold of each other in IC50: 90 nM for the first, 103 nM for the second.

[2H]c1ccc2c(N3C[C@H](CN4CC5(C4)OCc4cc(N6CCNCC6)ccc45)O[C@H](C)C3)ccc(C#N)c2n1 [Example 18, 2-deuterio-5-[(2R,6S)-2-methyl-6-[(6-piperazin-1-ylspiro[1H-isobenzofuran-3,3′-azetidine]-1′-yl)methyl]morpholin-4-yl]quinoline-8-carbonitrile] and C[C@@H]1CN(c2ccc(C#N)n3nccc23)C[C@H](CN2CC3(C2)OCc2cc(N4CC(N)C4)ccc23)O1 [Example 19, 4-[(2S,6R)-2-[[6-(3-aminoazetidin-1-yl)spiro[1H-isobenzofuran-3,3′-azetidine]-1′-yl]methyl]-6-methyl-morpholin-4-yl]pyrazolo[1,5-a]pyridine-7-carbonitrile] are within 1.5-fold of each other in IC50: 32 nM for the first, 36 nM for the second.

C[C@@H]1CN(c2cc(=O)n(C)c3ncccc23)C[C@H](CN2CC3(C2)OCc2cc(N4CC(N)C4)ccc23)O1 [Example 13, 4-[(2S,6R)-2-[[6-(3-aminoazetidin-1-yl)spiro[1H-isobenzofuran-3,3′-azetidine]-1′-yl]methyl]-6-methyl-morpholin-4-yl]-1-methyl-1,8-naphthyridin-2-one] and C[C@@H]1CN(c2ccc(C#N)n3ncc(F)c23)C[C@H](CN2CC3(C2)OCc2cc(N4CC(N)C4)ccc23)O1 [Example 9, 4-[(2S,6R)-2-[[6-(3-aminoazetidin-1-yl)spiro[1H-isobenzofuran-3,3′-azetidine]-1′-yl]methyl]-6-methyl-morpholin-4-yl]-3-fluoro-pyrazolo[1,5-a]pyridine-7-carbonitrile] are within 1.5-fold of each other in IC50: 68 nM for the first, 84 nM for the second.

First: C[C@@H]1CN(c2ccc(C#N)n3ncc(F)c23)C[C@H](CN2CC3(C2)OCc2cc(N4CC[C@](C)(N)C4)ccc23)O1 [Example 5, 4-[(2S,6R)-2-[[6-[(3S)-3-amino-3-methyl-pyrrolidin-1-yl]spiro[1H-isobenzofuran-3,3′-azetidine]-1′-yl]methyl]-6-methyl-morpholin-4-yl]-3-fluoro-pyrazolo[1,5-a]pyridine-7-carbonitrile]
Second: C[C@@H]1CN(c2ccc(C#N)n3ncc(F)c23)C[C@H](CN2CC3(C2)OCc2cc(N4CC5(CN(C)C5)C4)ccc23)O1 [Example 2, 3-fluoro-4-[(2R,6S)-2-methyl-6-[[6-(6-methyl-2,6-diazaspiro[3.3]heptan-2-yl)spiro[1H-isobenzofuran-3,3′-azetidine]-1′-yl]methyl]morpholin-4-yl]pyrazolo[1,5-a]pyridine-7-carbonitrile]
The IC50 of the first is 2.1-fold higher: 94 nM for the first, 45 nM for the second.

Compared with C[C@@H]1CN(c2ccc(C#N)n3ncc(F)c23)C[C@H](CN2CC3(C2)OCc2cc(N4CC5(CN(C)C5)C4)cnc23)O1 [Example 22, 3-fluoro-4-[(2R,6S)-2-methyl-6-[[3-(6-methyl-2,6-diazaspiro[3.3]heptan-2-yl)spiro[5H-furo[3,4-b]pyridine-7,3′-azetidine]-1′-yl]methyl]morpholin-4-yl]pyrazolo[1,5-a]pyridine-7-carbonitrile], C[C@@H]1CN(c2ccc(C#N)n3ncc(F)c23)C[C@H](CN2CC3(C2)OCc2cc(N4CC(C)(N)C4)cnc23)O1 [Example 33, 4-[(2S,6R)-2-[[3-(3-amino-3-methyl-azetidin-1-yl)spiro[5H-furo[3,4-b]pyridine-7,3′-azetidine]-1′-yl]methyl]-6-methyl-morpholin-4-yl]-3-fluoro-pyrazolo[1,5-a]pyridine-7-carbonitrile] is 4-fold higher in IC50: 57 nM for the first, 227 nM for the second. The first is the more potent here.

Going from C[C@@H]1CN(c2ccc(C#N)n3ncc(F)c23)C[C@H](CN2CC3(C2)OCc2cc(N4C[C@H](N)[C@@H](O)C4)ccc23)O1 [Example 10, 4-[(2S,6R)-2-[[6-[(3S,4S)-3-amino-4-hydroxy-pyrrolidin-1-yl]spiro[1H-isobenzofuran-3,3′-azetidine]-1′-yl]methyl]-6-methyl-morpholin-4-yl]-3-fluoro-pyrazolo[1,5-a]pyridine-7-carbonitrile] to C[C@@H]1CN(c2ccc(C#N)n3ncc(F)c23)C[C@H](CN2CC3(C2)OCc2cc(N4CC5(CNCCO5)C4)ccc23)O1 [Example 4, 3-fluoro-4-[(2R,6S)-2-methyl-6-[[6-(5-oxa-2,8-diazaspiro[3.5]nonan-2-yl)spiro[1H-isobenzofuran-3,3′-azetidine]-1′-yl]methyl]morpholin-4-yl]pyrazolo[1,5-a]pyridine-7-carbonitrile], the IC50 rises from 61 nM to 96 nM (1.6-fold).

In the case of C[C@@H]1CN(c2ccc(C#N)n3ncc(F)c23)C[C@H](CN2CC3(C2)OCc2cc(N[C@H]4CNC[C@H]4F)ccc23)O1 [Example 3, 3-fluoro-4-[(2S,6R)-2-[[6-[[(3S,4R)-4-fluoropyrrolidin-3-yl]amino]spiro[1H-isobenzofuran-3,3′-azetidine]-1′-yl]methyl]-6-methyl-morpholin-4-yl]pyrazolo[1,5-a]pyridine-7-carbonitrile], the IC50 is reported as 47 nM.
